One assay relates to Male Balb-c mice. As to the kind of experiment: Hot plate test, latency of the nociceptive reaction to heat. It counts as in vivo. The following applies: for antinociceptive activity (latency to heat): entire period. For orientation: Hot-plate and tail-flick tests time the reaction to a heat stimulus.
The subject of the next assay is Wistar rats. Particulars: high doses of fluoxetine; Omar et al. Pharmacol. Res. 49 (2004) 119-131; cited from earlier work.
[1] abbreviates: treated orally for 5 consecutive days, AN-214 0.2 mg/kg or equivalent molar dose of AN-216, FIG. 7.

“Also recorded” adds a separate entry of the source.

“2-Propyl-pentanoic acid (valproic acid) 4-aminobutyryloxymethyl ester hydrochloride [AN-216]”: the “antinociceptive activity (latency to heat)” value (shortened to “antinociceptive activity”) with Male Balb-c mice (setting [1]) is recorded as “no antinociceptive activity was detected”.

Take `Cl.NCCCC(=O)OCOC(=O)CCCN` [AN-214, 4-Amino-butyric acid 4-amino-butyryloxymethyl ester dihydrochloride]: the “antinociceptive activity” value with Male Balb-c mice (setting [1]) is recorded as “no antinociceptive activity was detected”.

Turning to `CNCCC(Oc1ccc(C(F)(F)F)cc1)c1ccccc1` (centres unmarked) [fluoxetine], the “antinociceptive effect (latency to heat) during repeated treatment” value with Male Balb-c mice (repeated oral treatment daily for 11 days, fluoxetine 10 mg/kg or equimolar conjugate, FIGS. 5B-E) was “significantly better antinociceptive effect compared to untreated animals”. For the same compound, the “response to heat sensation prior to daily treatment” value in the assay on Male Balb-c mice (repeated oral treatment daily for 11 days, fluoxetine 10 mg/kg or equimolar conjugate, tested at days 3, 7, 9 and 11, vs vehicle, FIG. 5A) is “A delay was noted only on day 11”. Besides, the “oedema response in rats” value with Wistar rats was “previously shown to reduce oedema response in rats”.

Consider `CNCCC=C1c2ccccc2CCc2ccccc21` [nortriptyline], for which the “latency of response to heat” value in the assay with Male Balb-c mice (p.o. 0.25 mg/kg nortriptyline or equimolar conjugate (0.32 mg/kg), 4 hours following treatment, vs untreated mice, FIG. 2A) is “increased significantly the latency of response compared to untreated mice”; in the assay with Male Balb-c mice (single p.o. dose, 0.5 mg/kg nortriptyline or equimolar dose of conjugate, two hours after administration, FIG. 1, 0.5 mg/kg), “significantly less effective; also recorded: did not differ significantly (p>0.05) from control mice”; with Male Balb-c mice (single p.o. dose, 4.5 mg/kg nortriptyline or equimolar dose of conjugate, two hours after administration, vs vehicle, p<0.05, FIG. 1), “significant delay in the response compared to control mice”. In addition, the “latency of response to heat, onset” value in the assay on Male Balb-c mice (p.o. 0.5 mg/kg nortriptyline, time course, vs vehicle, FIG. 2B) is reported as “significant latency, (compared to vehicle treated animals), after 4 hours only”.

Take `NCCCC(=O)O` [GABA, γ-aminobutyric acid]: the “latency in response to heat sensation” value in the assay with Male Balb-c mice (GABA 2.39 mg/kg, >10-folds higher dose than the conjugate, FIG. 6) is on record as “had no activity”. Also, the “antinociceptive activity” value in the assay on Male Balb-c mice (GABA orally for 5 consecutive days, three different doses, FIG. 8) was “No antinociceptive activity was detected”.

Source of the values: US8377990B2, “Conjugates comprising a psychotropic drug or a GABA agonist and an organic acid and their use in treating pain and other CNS disorders” (Ramot at Tel-Aviv University Ltd., priority 2006, dated 2013).
